Where two headings read alike, the source gives them in different places.

Common to all, as to format: biochemical
One assay addresses CDK9/cyclin T1 (Homo sapiens, UniProt P50750). Kind of assay: CDK 9 assay. The procedure: CTD peptide substrate (biotinyl-Ahx-(Tyr-Ser-Pro-Thr-Ser-Pro-Ser)4-NH2; 1-2 mg/mL) and recombinant human CDK7/cyclin H, CDK9/cyclin TI, or CDK9/cyclin K (0.5-2 μg) were incubated for 45 min at 30° C. in the presence of varying amounts of test compound in 20 mM MOPS pH 7.2, 25 mM β-glycerophosphate, 5 mM EGTA, 1 mM DTT, 1 mM sodium vanadate, 15 mM MgCl2, and 100 μM ATP (containing a trace amount of ^32PγATP) in a total volume of 25 μL in a 96-well microtiter plate. The reaction was stopped by placing the plate on ice for 2 min. Avidin (50 μg) was added to each well, and the plate was incubated at room temp for 30 min. The samples were transferred to a 96-well P81 filter plate, and washed (4×200 μL per well) with 75 mM phosphoric acid. Microscint 40 scintillation liquid (50 μL) was added to each well, and the amount of ^32P incorporation for each sample was measured using a Packard Topcount microplate scintillation counter.

The next assay has as its target T1, aurora-A (Homo sapiens, UniProt O14965).
T1 construct: purchased Upstate, Dundee, UK
T1 sequence (O14965 1-403): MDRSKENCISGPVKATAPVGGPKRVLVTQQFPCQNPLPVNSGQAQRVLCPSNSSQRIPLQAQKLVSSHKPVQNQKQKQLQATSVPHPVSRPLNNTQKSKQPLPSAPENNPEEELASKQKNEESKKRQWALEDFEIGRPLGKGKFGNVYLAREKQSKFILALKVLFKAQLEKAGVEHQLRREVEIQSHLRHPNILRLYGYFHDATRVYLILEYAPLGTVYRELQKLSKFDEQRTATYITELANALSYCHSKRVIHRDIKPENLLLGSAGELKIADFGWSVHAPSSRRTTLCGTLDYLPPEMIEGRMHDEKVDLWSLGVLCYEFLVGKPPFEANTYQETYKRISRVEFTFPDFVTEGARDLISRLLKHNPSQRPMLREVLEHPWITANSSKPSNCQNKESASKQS
Kind of assay: Aurora-A (human) kinase assay. The procedure:
This was achieved by measurement of incorporation of radioactive phosphate from ATP into Kemptide substrate (LRRASLG), upon phosphorylation by commercially obtained aurora-A (human, Upstate, Dundee, UK). Assays were performed using 96-well plates and appropriate assay buffers (20 mM Tris, 25 mM β-glycerophosphate, 5 mM EGTA, 1 mM DTT, 1 mM sodium vanadate, pH 7.5), into which were added 2-5 ng of active enzyme with 500 μM substrate (Kemptide). The reactions were initiated by addition of MgATP mix (15 mM MgCl2+100 μM ATP with 15-25 kBq per well of [γ-^32P]-ATP) and mixtures incubated for 30 min at 30° C. Reactions were stopped by addition of an equal volume of 75 mM aq orthophosphoric acid, followed by filtration through p81 filterplates (Whatman Polyfiltronics, Kent, UK). After washing 4 times with 75 mM aq orthophosphoric acid, plates were dried, scintillant added and incorporated radioactivity measured in a scintillation counter (TopCount, Packard Instruments, Pangbourne, Berks, UK). Compounds for kinase assay were made up as 10 mM stocks in DMSO and diluted into 10% DMSO in assay buffer. Data was analysed using curve-fitting software (XLfit version 4.0.2, IDBS, Guildford, Surrey, UK) to determine IC50 values (concentration of test compound which inhibits kinase activity by 50%).

The target of a further assay is CDK2/cyclin E (Homo sapiens, UniProt P24941). Kind of assay: Kinase assay CDK2/cyclin E. The procedure:
The compounds from the examples above were investigated for their ability to inhibit the enzymatic activity of various protein kinases. This was achieved by measurement of incorporation of radioactive phosphate from ATP into appropriate polypeptide substrates. Recombinant protein kinases and kinase complexes were produced or obtained commercially. Assays were performed using 96-well plates and appropriate assay buffers (typically 25 mM β-glycerophosphate, 20 mM MOPS, 5 mM EGTA, 1 mM DTT, 1 mM […], pH 7.4), into which were added 2-4 μg of active enzyme with appropriate substrates. The reactions were initiated by addition of Mg/ATP mix (15 mM MgCl2+100 μM ATP with 30-50 kBq per well of [γ-^32P]-ATP) and mixtures incubated as required at 30° C. Reactions were stopped on ice, followed by filtration through p81 filterplates or GF/C filterplates (Whatman Polyfiltronics, Kent, UK). After washing 3 times with 75 mM aq orthophosphoric acid, plates were dried, scintillant added and incorporated radioactivity measured in a scintillation counter (TopCount, Packard Instruments, Pangbourne, Berks, UK). Compounds for kinase assay were made up as 10 mM stocks in DMSO and diluted into 10% DMSO in assay buffer. Data was analysed using curve-fitting software (GraphPad Prism version 3.00 for Windows, GraphPad Software, San Diego Calif. USA) to determine IC50 values (concentration of test compound which inhibits kinase activity by 50%).

The mark [1] stands for this setting: Table 2, read-out: Kinase inhibition IC50 CDK9T1.
Where [2] appears, read: Table 3, read-out: Kinase inhibition CDK9T1.
Setting [3] is: Table 2, read-out: Kinase inhibition IC50 Aurora A.
Where [4] appears, read: Table 2, read-out: Kinase inhibition IC50 CDK2E.
[5] abbreviates: Table 3, read-out: Kinase inhibition CDK2E.
Setting [6] is: Table 3, values without asterisk, read-out: Kinase inhibition Aurora A.

CDK9/cyclin T1, sequence (P50750 whole entry): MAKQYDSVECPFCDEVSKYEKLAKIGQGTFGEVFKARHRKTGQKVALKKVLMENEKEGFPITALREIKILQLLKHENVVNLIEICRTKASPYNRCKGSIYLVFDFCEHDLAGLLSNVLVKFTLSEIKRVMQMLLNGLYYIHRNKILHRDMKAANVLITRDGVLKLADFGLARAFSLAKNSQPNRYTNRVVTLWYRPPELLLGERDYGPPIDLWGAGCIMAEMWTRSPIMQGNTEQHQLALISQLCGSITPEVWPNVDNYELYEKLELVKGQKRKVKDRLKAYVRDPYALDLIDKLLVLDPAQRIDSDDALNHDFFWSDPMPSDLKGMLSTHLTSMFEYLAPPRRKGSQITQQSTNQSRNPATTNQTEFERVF
CDK9/cyclin T1, sequence (O60563 whole entry partner): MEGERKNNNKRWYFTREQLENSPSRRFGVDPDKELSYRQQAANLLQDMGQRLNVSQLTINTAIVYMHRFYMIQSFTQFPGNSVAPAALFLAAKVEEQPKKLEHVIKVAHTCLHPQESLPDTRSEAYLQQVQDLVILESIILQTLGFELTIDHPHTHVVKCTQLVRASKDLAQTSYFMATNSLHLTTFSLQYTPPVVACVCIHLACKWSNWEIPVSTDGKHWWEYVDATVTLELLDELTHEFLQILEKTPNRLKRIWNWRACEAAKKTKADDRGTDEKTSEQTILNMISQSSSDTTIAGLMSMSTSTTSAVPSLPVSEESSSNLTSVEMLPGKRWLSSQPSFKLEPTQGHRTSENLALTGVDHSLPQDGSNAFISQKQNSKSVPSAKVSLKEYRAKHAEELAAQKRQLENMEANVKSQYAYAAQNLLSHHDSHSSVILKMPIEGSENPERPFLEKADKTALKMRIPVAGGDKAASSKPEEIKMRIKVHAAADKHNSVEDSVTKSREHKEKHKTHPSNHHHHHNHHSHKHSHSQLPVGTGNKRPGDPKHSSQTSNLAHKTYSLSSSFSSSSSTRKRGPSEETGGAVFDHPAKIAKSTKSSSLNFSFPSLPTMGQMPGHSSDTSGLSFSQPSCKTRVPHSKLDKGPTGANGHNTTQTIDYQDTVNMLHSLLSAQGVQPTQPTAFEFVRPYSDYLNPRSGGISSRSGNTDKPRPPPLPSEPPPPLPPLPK

For the compound `O=[N+]([O-])c1cccc(Nc2nccc(-c3c[nH]c4ccccc34)n2)c1` [Compound 2, [4-(1H-Indol-3-yl)-pyrimidin-2-yl]-(3-nitro-phenyl)-amine], the IC50 on CDK9/cyclin T1 (setting [1]) turned out to be 6.1 µM; on CDK9/cyclin T1 (setting [2]), 6.08 µM; at aurora-A (setting [3]) it was 0.27 µM; on CDK2/cyclin E (setting [4]) it was 2.9 µM; on CDK2/cyclin E (setting [5]), 2.95 µM.

As to `Fc1ccc(Nc2nccc(-c3c[nH]c4ccccc34)n2)cc1` [Compound 3, (4-Fluoro-phenyl)-[4-(1H-indol-3-yl)-pyrimidin-2-yl]-amine], the IC50 on CDK9/cyclin T1 (setting [1]) was more than 100 µM; on aurora-A (setting [3]), 1.1 µM; at CDK2/cyclin E (setting [4]) it was 1.2 µM; on CDK2/cyclin E (setting [5]), 1.17 µM.

For `COc1ccc(Nc2nccc(-c3c[nH]c4ccccc34)n2)cn1` [Compound 4, [4-(1H-Indol-3-yl)-pyrimidin-2-yl]-(6-methoxy-pyridin-3-yl)-amine], the IC50 at CDK9/cyclin T1 (setting [1]) was 2.8 µM; at CDK9/cyclin T1 (setting [2]), 2.82 µM; on aurora-A (setting [3]), 0.24 µM; on CDK2/cyclin E (setting [4]) it was 1.3 µM; on CDK2/cyclin E (setting [5]), 1.25 µM.

In the case of `c1ccc2c(-c3ccnc(Nc4ccc(N5CCOCC5)cc4)n3)c[nH]c2c1` [Compound 5, [4-(1H-Indol-3-yl)-pyrimidin-2-yl]-(4-morpholin-4-yl-phenyl)-amine], the IC50 on CDK9/cyclin T1 (setting [1]) is more than 10 µM; on aurora-A (setting [3]) it was 0.058 µM; on aurora-A (setting [6]), 0.804 µM; at CDK2/cyclin E (setting [4]) it was more than 10 µM.

Turning to `CC(=O)N1CCN(c2ccc(Nc3nccc(-c4c[nH]c5ccccc45)n3)cc2)CC1` [Compound 6, 4-(1H-indol-3-yl)-N-(4-acetylpiperazin-1-ylphenyl)pyrimidin-2-amine], the values for the IC50 on CDK9/cyclin T1 (setting [2]), on aurora-A (setting [6]) and on CDK2/cyclin E (setting [5]) were 2.08 µM, 0.13 µM and 4.5 µM, respectively.

Regarding `c1ccc2c(-c3ccnc(Nc4ccc(N5CCNCC5)cc4)n3)c[nH]c2c1` [Compound 7, 4-(1H-indol-3-yl)-N-(4-piperazin-1-ylphenyl)pyrimidin-2-amine], the IC50 was found to be 0.52 µM at CDK9/cyclin T1 (setting [2]), 0.221 µM at aurora-A (setting [6]) and 1.93 µM at CDK2/cyclin E (setting [5]).

In the case of `CC1CN(c2ccc(Nc3nccc(-c4c[nH]c5ccccc45)n3)cc2)CC(C)O1` (stereo not drawn) [Compound 9], the results for the IC50 at CDK9/cyclin T1 (setting [2]), on aurora-A (setting [6]) and on CDK2/cyclin E (setting [5]) were 3.03 µM, 0.277 µM and 4.91 µM, respectively.

Take `CN(C)c1ccc(Nc2nccc(-c3c[nH]c4ccccc34)n2)cc1` [Compound 10, N′-[4-(1H-indol-3-yl)pyrimidin-2-yl]-N,N-dimethylbenzene-1,4-diamine]: the IC50 at CDK9/cyclin T1 (setting [2]) is 1.59 µM; at aurora-A (setting [6]), 0.282 µM; on CDK2/cyclin E (setting [5]) it was 2.35 µM.

`COc1cc(Nc2nccc(-c3c[nH]c4ccccc34)n2)cc(OC)c1OC` [Compound 12, 4-(1H-indol-3-yl)-N-(3,4,5-trimethoxyphenyl)pyrimidin-2-amine]: the IC50 at CDK9/cyclin T1 (setting [2]) stood at 1.26 µM; on aurora-A (setting [6]) it was 0.0534 µM; on CDK2/cyclin E (setting [5]) it was 1.82 µM.

With `COc1cc(Nc2nccc(-c3c[nH]c4ccccc34)n2)ccc1N1CCOCC1` [Compound 13, 4-(1H-indol-3-yl)-N-(3-methoxyl-4-morpholin-4-ylphenyl)pyrimidin-2-amine], the IC50 came to 4.24 µM on CDK9/cyclin T1 (setting [2]), 0.112 µM at aurora-A (setting [6]) and 7.6 µM on CDK2/cyclin E (setting [5]).

As to `CC(=O)N1CCN(c2ccc(Nc3nccc(-c4c(C)[nH]c5ccccc45)n3)cc2)CC1` [Compound 22], the figures for the IC50 at CDK9/cyclin T1 (setting [2]), on aurora-A (setting [6]) and on CDK2/cyclin E (setting [5]) were 4.44 µM, 0.0377 µM and 5.15 µM, respectively.

Consider `CC(=O)N1CCN(c2ccc(Nc3nccc(-c4c[nH]c5c(C)cccc45)n3)cc2)CC1` [Compound 23], for which the IC50 at CDK9/cyclin T1 (setting [2]) worked out at 1.54 µM; at aurora-A (setting [6]), 0.0917 µM; at CDK2/cyclin E (setting [5]), 2.43 µM.

Values taken from patent publication US20090318446A1, “4-(1H-Indol-3-yl)-Pyrimidin-2-Ylamine Derivatives and Their Use in Therapy” (Cyclacel Limited, priority 2005, published 2009).
